The subject of the assay is P. falciparum 3D7 growth, pLDH absorbance. The assay is described as follows: P. falciparum 3D7 growth inhibition, dose response, strain 3D7 (AID 2305).

`O=C(Nc1ccc(N2CCCCC2)c(Cl)c1)c1ccco1`: the IC50 (as a rule, the concentration that gives 50% inhibition) came out at 410 nM.

`O=C(Nc1ccc(-c2ccccc2)cc1)Nc1cccc(OCCN2CCCC2)c1` gave an IC50 of 930 nM.

Take `Cc1cc(N2CCOCC2)nc(Nc2ccc(NC(=O)c3cccc4ccccc34)cc2)n1`: the IC50 was found to be 1300 nM.

As to `CN1CCC(NCc2cccc(-c3cccc(-c4nc5ccc(C(F)(F)F)cc5[nH]4)c3)c2)CC1`, the IC50 is 140 nM.

For `COc1cc2ccccc2c(CON2C(N)=NC(N)=NC2(C)C)c1OC`, the IC50 amounted to 50 nM.

Consider `COC(=O)CN(C(=O)/C=C/c1ccc(Cl)c(Cl)c1)C1CCC(CN2CCC(c3c[nH]c4ccccc34)CC2)CC1` (stereo not given), for which the IC50 worked out at 510 nM.

Consider `COc1ccc2nccc([C@@H](O)CN3CCC(NCc4cc5cccc(O)c5c(=O)[nH]4)CC3)c2c1`, for which the IC50 stood at 390 nM.

For the compound `Clc1cc2c(Nc3ccc(Oc4ccccc4)cc3)ccnc2cc1-c1ccc(CNCCN2CCOCC2)o1`, the 50% inhibitory concentration (IC50) was determined as 710 nM.

Take `CC(NC(=O)c1ccc(O)c(-c2ccc(Cl)c(Cl)c2)c1)C(=O)NCCN1CCCCC1` (stereo not given): the IC50 came out at 870 nM.

Consider `Cc1nnsc1C(=O)Nc1cccc(-c2cccc(-c3nc4ccccc4[nH]3)c2)c1`, for which the IC50 came out at 440 nM.

`CON=Cc1sc(CNCCCNc2cc(=O)c3ccccc3[nH]2)c(C)c1Br` yielded a 50% inhibitory concentration (IC50) of 960 nM.

As for `O=C(NCc1ccc(C(=O)NCc2cccc3ccccc23)cc1)c1ccc(O)c(-c2ccc(Cl)c(Cl)c2)c1`, the IC50 was 810 nM.

As for `O=C(Nc1ccc(OC2CCN(Cc3ccc(F)cc3)C2)c(Cl)c1)c1ccoc1` (stereo not given), the IC50 is 940 nM.

`Cc1ccc(C(=O)Nc2ccc(F)cc2)cc1-c1nc(NC2CC(C)(C)NC(C)(C)C2)nc2c1ccc(=O)n2-c1c(F)cccc1F` registered an IC50 of 680 nM.

On to `Nc1c2c(nc3cc(NC(=O)c4ccc([N+](=O)[O-])cc4)ccc13)CCCC2`, for which the IC50 was found to be 470 nM.

With `O=S(=O)(NC1CCC(CN2CCC(c3c[nH]c4ccccc34)CC2)CC1)c1ccc(Cl)c(Cl)c1` (stereo not given), the IC50 amounted to 820 nM.

`O=C1CC(C(=O)O)CC(=O)N1` registered an IC50 of 760 nM.

In turn, `N=C1SC(=Cc2cn[nH]c2-c2ccc(F)cc2)C(=O)N1c1nccs1` registered an IC50 of 220 nM.

For `COc1ccc2nc(SC(C)C(=O)c3c[nH]c4ccccc34)[nH]c2c1` (stereo not given), the IC50 came out at 1280 nM.

The compound `CCNc1cc(C(=O)N[C@@H](Cc2ccccc2)[C@H](O)CNC23CC4CC(CC(C4)C2)C3)cc(N2CCCCS2(=O)=O)c1` showed an IC50 of 220 nM.

As for `CCc1cn(C)c2c(N3CCCC3=O)cc(C(=O)N[C@@H](Cc3ccccc3)[C@H](O)CNCc3cccc(OC)c3)cc12`, the IC50 is 780 nM.

As for `COc1ccc(CNCC2CCC(CNCCc3ccccc3)CC2)cc1Cl` (stereo not given), the IC50 was determined as 790 nM.

In turn, `CCCN(CCC)C(=S)N=Nc1c(O)[nH]c2ccccc12` registered an IC50 of 810 nM.

The compound `CC(CCc1ccccc1)NCC(O)c1ccc2c(c1)S(=O)(=O)c1ccccc1N2` (stereo not given) registered a half-inhibitory concentration (IC50) of 1220 nM.

For `O=C(/C=C/c1ccc(Cl)c(Cl)c1)NCCCCCN1CCN(C(=O)Nc2ccc(C(F)(F)F)cc2)CC1`, the IC50 came out at 720 nM.

`CCCCCCn1c(Sc2ccc(C#N)c([N+](=O)[O-])c2)nnc1-c1ccc(N(C)C)cc1` returned a half-maximal inhibitory concentration (IC50) of 1070 nM.

As for `Cc1cc(NC(=O)NCCN2CCC(NC(=O)c3ccc(Cl)cc3)CC2)c2ccccc2n1`, the half-inhibitory concentration (IC50) worked out at 380 nM.

`O=C(NCCCCN1CCC(c2ccc3c(c2OCc2ccccn2)CCCC3)CC1)c1ccc(NC(=O)c2ccc(Cl)cc2)cc1`: the IC50 amounted to 800 nM.

Compound `Cc1nc2sccn2c1C(=O)NCCc1ccccc1Cl` had a concentration for half-maximal inhibition (IC50) of 800 nM.

As to `N#Cc1cccc(Nc2nccc(Nc3ccc(Oc4ccccc4)cc3)n2)c1`, the IC50 is 830 nM.

Consider `Cc1[nH]c(C)c(-c2ccc(C(=O)c3ccc(Cl)cc3)cc2)c(=O)c1Cl`, for which the IC50 worked out at 530 nM.

`CS(=O)(=O)Nc1cccc(-c2cnc3[nH]cc(-c4ccc(C(=O)O)c(F)c4)c3c2)c1` came in with an IC50 of 830 nM.

`C=C[C@H]1CN(CCCCCCC)CC[C@H]1C[C@@H](Cc1ccnc2ccc(OC)cc12)OC(=O)[C@](OC)(c1ccccc1)C(F)(F)F` registered an IC50 of 880 nM.

For `COc1ccc2nccc(NN=Cc3ccc(Cl)cc3)c2c1`, the IC50 was 210 nM.

For the compound `Cc1cc(N[C@@H](CC(C)C)C(=O)NCCc2ccccc2)nc(NCC2CCCCC2)n1`, the IC50 is 900 nM.

`O=C(C=Cc1cccc(F)c1)NC1CCC(CCN2CCc3ccc(-c4cnccn4)cc3CC2)CC1` (stereo not given) gave an IC50 of 450 nM.

Compound `CC(Cc1ccc(NS(=O)(=O)c2ccc(CC(C)NCCc3cccc(Cl)c3)cc2)cc1)NCCc1cccc(Cl)c1` (stereo not given) had an IC50 of 780 nM.

On to `COc1ccc2nc(-c3ccccc3)cc(NN=Cc3ccncc3)c2c1`, for which the IC50 stood at 810 nM.

The compound `CC(=O)Nc1ccc(C(=O)Nc2ccc(-c3cccc(-c4nc5ccccc5[nH]4)c3)cc2)cn1` came in with an IC50 of 240 nM.

Consider `CS(=O)(=O)Nc1cccc(-c2cnc3[nH]cc(-c4cccc(CN)c4)c3c2)c1`, for which the IC50 is 1660 nM.

With `COc1cccc(-c2cccc(CNC3CCN(CC4Cn5c(=O)ccc6ccc(F)c4c65)CC3)c2)c1` (stereo not given), the half-inhibitory concentration (IC50) stood at 930 nM.

In turn, `Nc1[nH]c2ccccc2c(=O)c1-c1nc2ccccc2s1` showed an IC50 of 300 nM.

`O=C(Nc1ccc(OC2CCN(Cc3ccccc3)C2)c(Cl)c1)c1ccc(F)cc1` (stereo not given) returned an IC50 of 790 nM.

The compound `O=c1[nH]c(NCCCCCN2CCC(c3c[nH]c4ccccc34)CC2)ncc1Cc1ccc(Cl)c(Cl)c1` registered an IC50 of 970 nM.

As to `O=C(Nc1ccc(Br)cc1)N(CCN1CCOCC1)CC(O)COc1ccc(Cl)c(F)c1` (stereo not given), the IC50 turned out to be 1040 nM.

The compound `COc1cc(Nc2ncc3c(C)nc(-c4cccc(Nc5ccc(CN6CCS(=O)(=O)CC6)cc5)c4)n3n2)cc(OC)c1OC` had a concentration for half-maximal inhibition (IC50) of 870 nM.

Compound `COc1cc(N)c(Cl)cc1C(=O)NC1CCC(NCC2CCCCC2)CC1` (stereo not given) showed an IC50 of 430 nM.

The compound `COC(=O)c1ccc(CC(C)NCC(O)c2cccc(C(F)(F)F)c2)cc1C` (stereo not given) gave an IC50 of 970 nM.

With `CCOc1cc(CC)ccc1C1CCN(CCN2CCC(NC(=O)c3ccc(-c4ccc(C(C)=O)cc4)cc3)CC2)CC1`, the IC50 was found to be 230 nM.

For the compound `O=C(C=Cc1ccc(-c2nc3ccccc3[nH]2)cc1)NC1CCN(Cc2ccccc2)CC1`, the IC50 worked out at 740 nM.

Take `CCOc1ccc(-c2nonc2NC(=O)c2cccs2)cc1OCC`: the IC50 amounted to 760 nM.

Turning to `CCCNC(=O)Nc1cc2cc(-c3cccc(CN4CCCCC4)c3)ccc2n2c(C)nnc12`, the IC50 was found to be 1110 nM.

Compound `CSc1cccc(Nc2nc3ccc(S(=O)(=O)NCC(C)C)cc3n2C(C)C(C)C)c1` (stereo not given) had an IC50 of 820 nM.

`CCOC(=O)c1ccc(NC(=O)Nc2ccc(-c3cccc(-c4nc5c(C)cccc5[nH]4)c3)cc2)cc1` displayed an IC50 of 140 nM.

Compound `O=C(NCC1CCC(C(=O)NCCc2ccc(Cl)c(Cl)c2)CC1)c1ccc(O)c(-c2ccc(Cl)c(Cl)c2)c1` (stereo not given) showed an IC50 of 890 nM.

With `COc1ccc(Cn2c(Nc3cccc(C(F)(F)F)c3)nc3cc(C(=O)NC4CC4)cnc32)cc1Cl`, the IC50 turned out to be 730 nM.

Consider `CCN(CC)CCN(Cc1ccc(-c2ccc(C(F)(F)F)cc2)cc1)C(=O)Cn1c(CCc2ccccc2F)nc(=O)c2ccccc21`, for which the IC50 stood at 930 nM.

`CCCC(C)NC(=O)C(N)Cc1cccc(I)c1` (stereo not given) came in with a 50% inhibitory concentration (IC50) of 980 nM.

Regarding `COc1ccc2c(c1)c(C1CCN(CCCCNC(=O)c3ccc(-c4ccc(C(F)(F)F)cc4)cc3)CC1)cn2C(C)C`, the IC50 is 730 nM.

Consider `CCNc1cc(C(=O)N[C@@H](Cc2ccccc2)[C@H](O)CNC2(CCC(C)C)CC2)cc(N2CCCCS2(=O)=O)c1`, for which the IC50 amounted to 1080 nM.

Take `CN(C)c1ccc(CN2CCC(CNC(=O)c3cc(-c4ccccc4F)cs3)C2)cc1` (stereo not given): the IC50 amounted to 910 nM.

`COc1ccccc1CCNc1nc(C)cc(NCCC(=O)NCCOc2ccccc2)n1` registered an IC50 of 1370 nM.

`COc1ccc(-c2ccc(CNCc3ccc(F)cc3)cc2)cc1S(=O)(=O)NCCN1CCCC1` had an IC50 of 730 nM.

`Cc1cc(NC(=O)c2ccco2)ccc1OC1CCN(Cc2ccccc2)CC1` registered an IC50 of 530 nM.

Regarding `O=c1cc(NCCCNCc2cc(Cl)cc(Cl)c2OCc2ccccc2)[nH]c2ccccc12`, the IC50 was found to be 1030 nM.

The compound `O=c1cc(NCCCNCc2cc(Cl)cc(Cl)c2OCc2ccc(Cl)cc2)[nH]c2ccccc12` showed an IC50 of 690 nM.

As to `CN(C)c1nc(NCc2ccccc2)nc(NN=Cc2cc([N+](=O)[O-])ccc2O)n1`, the IC50 worked out at 690 nM.

Turning to `N#Cc1ccc(-c2ccc(C(=O)NCC3CCN(CCN4CCC(c5ccc6c(c5OCC(N)=O)CCCC6)CC4)CC3)cc2)cc1`, the IC50 is 440 nM.

In turn, `Cc1cc(NC(=O)c2cc(S(=O)(=O)N3CCCCC3)ccc2C)no1` displayed an IC50 of 720 nM.

Take `COc1ccc2ccc(F)c(CC(=O)N3CCOC(CNCc4cccc(-c5ccc(F)cc5)n4)C3)c2n1` (stereo not given): the half-inhibitory concentration (IC50) amounted to 1010 nM.

With `COc1ccc(Nc2nc(NN=Cc3cc(Cl)ccc3O)nc(Nc3ccccc3)n2)cc1`, the IC50 came out at 650 nM.

As for `Cc1cccc(C(=O)Nc2ccnc(N(C)C3CCN(CC(C)C)CC3)c2)c1`, the IC50 worked out at 870 nM.

In the case of `COc1cc2nc(N3CCC(CNC(=O)c4ccc(-c5ccc(Cl)cc5)cc4)CC3)nc(N)c2cc1OC`, the IC50 was found to be 150 nM.

`c1cncc(-c2cc(N3CCCCC3)nc(-c3ccncc3)n2)c1` displayed an IC50 of 770 nM.

Consider `CCc1ccc(Cc2cnc3nc(N)nc(N)c3c2C)cc1`, for which the IC50 is 200 nM.

In turn, `Nc1ccc(Nc2ccnc3ccc(C(F)(F)F)cc23)cc1O` showed a 50% inhibitory concentration (IC50) of 720 nM.

For `O=C(Cn1c(CCc2cccc(F)c2F)cc(=O)c2ccccc21)N(Cc1ccc(-c2ccc(C(F)(F)F)cc2)cc1)C1CCN(CCN2CCOCC2)CC1`, the IC50 came to 720 nM.

For the compound `COc1cccc(C2CCN(CCN3CCC(NC(=O)c4ccc(-c5ccc(Cl)cc5)cc4)CC3)CC2)c1`, the IC50 is 1090 nM.

`COc1ccc2nccc([C@@H](O)CN3CCC(NCc4ccc(OC)c(NC(C)=O)c4)CC3)c2c1` showed an IC50 of 840 nM.

The compound `COc1ccc(Nc2ncc3c(-c4cccc(NC(=O)CC(C)C)c4)c[nH]c3n2)cc1OC` yielded a half-inhibitory concentration (IC50) of 830 nM.

In turn, `Fc1ccc2nc(-c3ccc(-c4ccc(CNCC5CCCO5)cc4)cc3)[nH]c2c1` (stereo not given) gave an IC50 of 440 nM.

`CCCCCCCC1CC(CC(=O)Nc2ccnc3ccc(OC)cc23)CN1` (stereo not given) yielded an IC50 of 510 nM.

For the compound `c1cc(CN2CCCCC2)cc(-c2csc(-c3nc4ccccc4[nH]3)c2)c1`, the IC50 was found to be 850 nM.

`CCCc1cn2c3c(cc(C(=O)N[C@@H](Cc4ccccc4)[C@H](O)CNC4CCCCC4)cc13)N(C)S(=O)(=O)CC2` registered an IC50 of 70 nM.

Compound `CN(C)c1ccc(CN2CCCC(CNC(=O)c3ccc(-c4cccc(C(F)(F)F)c4)s3)C2)cc1` (stereo not given) gave an IC50 of 1200 nM.

(Values after PubChem BioAssay AID2305 (GlaxoSmithKline (GSK), 2010).)
